Columns and labels:
[1] = Microsomal stability assay, liver microsome half-life (human); assay type: in vitro ADME; settings: pH 7.4; human liver microsomes 0.5 mg/mL, 1 μM compound, 37° C.; read-out: Liver microsome T1/2 Human
Description: (§1) Microsomal Stability Assay: Microsomal stability assay is a widely used in vitro model to characterize the metabolic conversion by phase I enzymes, such as cytochrome P450 (CYP) enzymes. Since metabolism is known to be highly variable in different species, microsomal stability assay is commonly run in multiple species. Metabolic stability of testing compound can be evaluated using human, rat, mouse, or other animal liver or intestine microsomes to predict intrinsic clearance.
(§2) The assay was carried out in 96-well microtiter plates at 37° C. Reaction mixtures (25 μL) contained a final concentration of 1 μM test compound, 0.5 mg/mL liver microsomes protein, and 1 mM NADPH and/or 1 mM UDPGA (with alamethicin) in 100 mM potassium phosphate, pH 7.4 buffer with 3 mM MgCl2. The incubation was done with N=1, but duplicate incubation at each time point can be prepared if necessary. At each of the time points (for example, 0, 15, 30, and 60 minutes), 150 μL of quench solution (100% acetonitrile with 0.1% formic acid) with internal standard was transferred to each well. Besides the zero minute controls, mixtures containing the same components except the NADPH can also be prepared as the negative control. Verapamil was included as a positive control to verify assay performance. Plates were sealed, vortexed, and centrifuged at 4° C. for 15 minutes at 4000 rpm. The supernatant is transferred to fresh plates for LC/MS/MS analysis.
(§3) Summarized conditions: [Compound]=1 μM, [LM]=0.5 mg/mL, [NADPH]=1 mM and/or [UDPGA]=1 mM, Buffer=100 mM Potassium Phosphate, pH 7.4 with 3 mM MgCl2, Time=0, 15, 30, and 60 min, and Temperature=37° C.
(§4) All samples were analyzed on LC/MS/MS using an AB Sciex API 4000 instrument, coupled to a Shimadzu LC-20AD LC Pump system. Analytical samples were separated using a Waters Atlantis T3 dC18 reverse phase HPLC column (20 mm×2.1 mm) at a flow rate of 0.5 mL/min. The mobile phase consisted of 0.1% formic acid in water (solvent A) and 0.1% formic acid in 100% acetonitrile (solvent B).
(§5) The extent of metabolism is calculated as the disappearance of the test compound, compared to the 0-min time incubation. Initial rates are calculated for the compound concentration and used to determine half-life (t½). […]

androgen receptor (AR) = biological target: T1, androgen receptor (AR) (Homo sapiens, UniProt P10275, T878A); test: Androgen-induced PSA (6.1 kb)-luciferase reporter assay in LNCaP cells (R1881 1 nM); assay type: cell-based; parameters: endogenous in cells; host or cells: LNCaP; settings: 24 h, read-out: PSA-Luc IC50 Range
T1 sequence (P10275 1-920 T878A): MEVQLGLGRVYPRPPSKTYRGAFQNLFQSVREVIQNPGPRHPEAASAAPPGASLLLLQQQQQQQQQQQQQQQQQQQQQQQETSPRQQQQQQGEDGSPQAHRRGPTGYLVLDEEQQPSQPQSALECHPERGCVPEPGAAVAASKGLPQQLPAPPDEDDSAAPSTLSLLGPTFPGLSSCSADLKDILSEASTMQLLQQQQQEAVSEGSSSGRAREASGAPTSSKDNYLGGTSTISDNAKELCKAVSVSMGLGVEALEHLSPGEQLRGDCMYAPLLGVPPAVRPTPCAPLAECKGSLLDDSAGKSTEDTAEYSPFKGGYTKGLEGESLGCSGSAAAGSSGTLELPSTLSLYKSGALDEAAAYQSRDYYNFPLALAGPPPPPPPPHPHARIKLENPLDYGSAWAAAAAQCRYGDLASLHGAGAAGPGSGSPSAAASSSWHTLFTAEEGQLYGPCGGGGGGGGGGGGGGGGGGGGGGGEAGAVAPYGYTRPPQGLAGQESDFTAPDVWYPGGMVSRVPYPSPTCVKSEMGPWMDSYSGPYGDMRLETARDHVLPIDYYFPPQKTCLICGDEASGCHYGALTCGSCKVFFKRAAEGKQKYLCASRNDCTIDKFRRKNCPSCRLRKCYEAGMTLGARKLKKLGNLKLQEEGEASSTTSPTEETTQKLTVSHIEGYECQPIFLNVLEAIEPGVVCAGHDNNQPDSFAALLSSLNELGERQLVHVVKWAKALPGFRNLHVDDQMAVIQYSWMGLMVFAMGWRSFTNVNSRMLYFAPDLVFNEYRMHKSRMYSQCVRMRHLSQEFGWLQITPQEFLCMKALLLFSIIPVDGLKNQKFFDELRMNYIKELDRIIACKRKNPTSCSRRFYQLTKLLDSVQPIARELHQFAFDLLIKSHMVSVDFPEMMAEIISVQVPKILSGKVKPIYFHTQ
Summary of the method: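 Compound or vehicle was added 1 h before 1 nM R1881 to LNCaP cells carrying a transiently transfected (24 h) PSA (6.1 kb)-luciferase reporter. After 24 h androgen exposure, lysate luminescence was normalized to protein and expressed versus vehicle plus R1881 for IC50.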

[2] = Microsomal stability assay, liver microsome half-life (mouse); assay type: in vitro ADME; settings: pH 7.4; mouse liver microsomes 0.5 mg/mL, 1 μM compound, 37° C.; read-out: Liver microsome T1/2 Mouse
Description: as §1, §2, §3, §4, §5

[3] = Microsomal stability assay, liver microsome half-life (monkey); assay type: in vitro ADME; settings: pH 7.4; monkey liver microsomes 0.5 mg/mL, 1 μM compound, 37° C.; read-out: Liver microsome T1/2 Monkey
Description: as §1, §2, §3, §4
(§6) The extent of metabolism is calculated as the disappearance of the test compound, compared to the 0-min time incubation. Initial rates are calculated for the compound concentration and used to determine half-life (t½).

[4] = Microsomal stability assay, liver microsome half-life (rat); assay type: in vitro ADME; settings: pH 7.4; rat liver microsomes 0.5 mg/mL, 1 μM compound, 37° C.; read-out: Liver microsome T1/2 Rat
Description: as §1, §2, §3, §4, §5

[5] = Microsomal stability assay, liver microsome half-life (dog); assay type: in vitro ADME; settings: pH 7.4; dog liver microsomes 0.5 mg/mL, 1 μM compound, 37° C.; read-out: Liver microsome T1/2 Dog
Description: as §1, §2, §3, §4, §6

half-life at 1 μM [1]	IC50 (androgen receptor (AR))	half-life at 1 μM [2]	half-life at 1 μM [3]	half-life at 1 μM [4]	half-life at 1 μM [5]	SMILES
0.93 h	> 2 µM	–	–	–	–	CS(=O)(=O)Nc1nccc(COCCc2cc(Cl)c(OCCCl)c(C#N)c2)n1 [Compound A5]
> 2 h	> 2 µM	–	–	–	–	CS(=O)(=O)Nc1nccc(OC2CCN(C(=O)c3cc(Cl)c(OCCCl)c(C#N)c3)CC2)n1 [Compound A6, N-(4-((1-(3-chloro-4-(2-chloroethoxy)-5-cyanobenzoyl)piperidin-4-yl)oxy)pyrimidin-2-yl)methanesulfonamide]
1.4 h	> 2 µM	–	–	–	–	CS(=O)(=O)Nc1nccc(OCC23CC(C(=O)c4ccc(OCCCl)cc4)(C2)C3)n1 [Compound A7]
0.161 h	> 2 µM	–	–	–	–	CS(=O)(=O)Nc1nccc(OCC23CC(C(=O)c4cc(Cl)c(OCCCl)c(C#N)c4)(C2)C3)n1 [Compound A8]
1.14 h	0.5 to 2 µM	> 2 h	–	–	–	CS(=O)(=O)Nc1nccc(COc2ccc3c(c2)CCC=C3c2cc(Cl)c(OCCCl)c(C#N)c2)n1 [Compound A32, N-(4-(((5-(3-chloro-4-(2-chloroethoxy)-5-cyanophenyl)-7,8-dihydronaphthalen-2-yl)oxy)methyl)pyrimidin-2-yl)methanesulfonamide]
> 2 h	0.5 to 2 µM	> 2 h	–	–	–	CS(=O)(=O)Nc1nccc(COc2ccc3c(c2)CCCC3c2cc(Cl)c(OCCCl)c(C#N)c2)n1 (centres unmarked) [Compound A33, N-(4-(((5-(3-chloro-4-(2-chloroethoxy)-5-cyanophenyl)-5,6,7,8-tetrahydronaphthalen-2-yl)oxy)methyl)pyrimidin-2-yl)methanesulfonamide]
> 2 h	0.5 to 2 µM	> 2 h	–	–	–	CS(=O)(=O)Nc1nccc(COc2ccc3c(-c4cc(Cl)c(OCCCl)c(C#N)c4)cccc3c2)n1 [Compound A34, N-(4-(((5-(3-chloro-4-(2-chloroethoxy)-5-cyanophenyl)naphthalen-2-yl)oxy)methyl)pyrimidin-2-yl)methanesulfonamide]
> 2 h	0.5 to 2 µM	> 2 h	> 2 h	> 2 h	> 2 h	CS(=O)(=O)Nc1nccc(COc2ccc3c(c2)CCC3c2cc(Cl)c(OCCCl)c(C#N)c2)n1 (centres unmarked) [Compound A35, N-(4-(((1-(3-chloro-4-(2-chloroethoxy)-5-cyanophenyl)-2,3-dihydro-1H-inden-5-yl)oxy)methyl)pyrimidin-2-yl)methanesulfonamide]
> 2 h	< 0.5 µM	> 2 h	> 2 h	> 2 h	> 2 h	CS(=O)(=O)Nc1nccc(COc2ccc3c(ccn3-c3cc(Cl)c(OCCCl)c(C#N)c3)c2)n1 [Compound A36, N-(4-(((1-(3-chloro-4-(2-chloroethoxy)-5-cyanophenyl)-1H-indol-5-yl)oxy)methyl)pyrimidin-2-yl)methanesulfonamide]
> 2 h	0.5 to 2 µM	–	–	–	–	CS(=O)(=O)Nc1nccc(COc2nnc(-c3cc(Cl)c(OCCCl)c(C#N)c3)o2)n1 [Compound A37, N-(4-(((5-(3-chloro-4-(2-chloroethoxy)-5-cyanophenyl)-1,3,4-oxadiazol-2-yl)oxy)methyl)pyrimidin-2-yl)methanesulfonamide]
> 2 h	> 2 µM	–	–	–	–	CC(C)(c1ccc(OCc2ccnc(NS(C)(=O)=O)n2)cc1)c1cc(Cl)c2c(c1)OCCO2 [Compound A38]
> 2 h	> 2 µM	> 2 h	–	–	–	CS(=O)(=O)Nc1nccc(COc2nnc(-c3cc(Cl)c(OCCCl)c(C#N)c3)s2)n1 [Compound A41]
> 2 h	0.5 to 2 µM	> 2 h	> 2 h	> 2 h	> 2 h	CC(C)(c1ccc(OCc2ccnc(NS(C)(=O)=O)c2F)cc1)c1cc(Cl)c(OCCCl)c(C#N)c1 [Compound A48]
–	0.5 to 2 µM	–	–	–	–	CC(C)(c1ccc(-c2ccc3sc(NS(C)(=O)=O)nc3c2)cc1)c1cc(Cl)c(OCCCl)c(C#N)c1 [Compound A275]
–	0.5 to 2 µM	–	–	–	–	COc1c(Cl)cc(C2CCc3cc(-c4ccc5nc(NS(C)(=O)=O)cnc5c4)ccc32)cc1C#N (centres unmarked) [Compound A276]
–	< 0.5 µM	–	–	–	–	CC(C)(c1ccc(OCC23CC(CNS(C)(=O)=O)(C2)C3)cc1)c1cc(Cl)c(OCCCl)c(C#N)c1 [Compound A277]
–	0.5 to 2 µM	–	–	–	–	CC(C)(c1ccc(-c2ccc3c(NS(C)(=O)=O)nccc3n2)cc1)c1cc(Cl)c(OCCCl)c(C#N)c1 [Compound A278]
–	0.5 to 2 µM	–	–	–	–	CC(C)(c1ccc(-c2cnc3nc(NS(C)(=O)=O)ccc3n2)cc1)c1cc(Cl)c(OCCCl)c(C#N)c1 [Compound A279]
–	0.5 to 2 µM	–	–	–	–	CC(C)(c1ccc(-c2cnc3c(NS(C)(=O)=O)nccc3n2)cc1)c1cc(Cl)c(OCCCl)c(C#N)c1 [Compound A280]
–	> 2 µM	–	–	–	–	CC(C)(c1ccc(-c2ccc3oc(NS(C)(=O)=O)nc3n2)cc1)c1cc(Cl)c(OCCCl)c(C#N)c1 [Compound A281]
–	> 2 µM	–	–	–	–	CC(C)(c1ccc(-c2ccc3nc(NS(C)(=O)=O)oc3n2)cc1)c1cc(Cl)c(OCCCl)c(C#N)c1 [Compound A282]
–	0.5 to 2 µM	–	–	–	–	CC(C)(c1ccc(OCc2ccnc(NS(C)(=O)=O)n2)cc1)c1cc(Cl)c(N2CCOCC2)c(C#N)c1 [Compound A283]
–	0.5 to 2 µM	–	–	–	–	CC(C)(c1ccc(OCC23CCN(S(C)(=O)=O)C(C2)C3)cc1)c1cc(Cl)c(OCCCl)c(C#N)c1 [Compound A284]
–	0.5 to 2 µM	–	–	–	–	CC(C)(c1ccc(OCC23CC(C2)N(S(C)(=O)=O)C3)cc1)c1cc(Cl)c(OCCCl)c(C#N)c1 [Compound A285]
> 2 h	–	> 2 h	> 2 h	> 2 h	> 2 h	CNC(=O)c1ccc(N2C(=S)N(c3ccc(C#N)c(C(F)(F)F)c3)C(=O)C2(C)C)cc1F [Enzalutamide, enzalutamide, reference compound]
> 2 h	–	–	–	–	–	CC(C)(c1ccc(OC[C@H](O)CNS(C)(=O)=O)cc1)c1cc(Cl)c(OC[C@H](O)CCl)c(Cl)c1 [X, reference compound]
